Results on 20 molecules are retold here after ChEMBL document CHEMBL1134382, “Estimation of binding affinities for selective thrombin inhibitors via Monte Carlo simulations” (J Med Chem, 2001).

Each structure is given as a SMILES string.

In one test the target is Prothrombin (Bos taurus, UniProt P00735). As to the kind of experiment: Binding affinity was determined against bovine thrombin.
For orientation: Ki means a dissociation constant, usually derived from enzyme kinetics or from competition with a known ligand. Read a low Ki as a stronger hold on the target. `NC(N)c1ccc(C[C@H](NS(=O)(=O)c2ccc3ccccc3c2)C(=O)N2CCCCCC2)cc1` returned an inhibition constant Ki of 52.4 nM.
The same measure, in the same setting: then `CNC(N)c1ccc(C[C@@H](NC(=O)CNS(=O)(=O)c2ccc3ccccc3c2)C(=O)N2CCCCC2)cc1` (stereo partly specified), with 5370 nM; and `CN(C(=O)[C@H](Cc1ccc(C(N)NN)cc1)NS(=O)(=O)c1ccc2ccccc2c1)C1CCCC1` (stereo partly specified), with 1.1 nM.
Regarding `CN(C(=O)[C@H](Cc1ccc(C(N)NN)cc1)NS(=O)(=O)c1ccc2ccccc2c1)C1CC1` (stereo partly specified), the affinity, expressed as Ki, was 247 nM.
Same read-out and setting: the same measure for `CN(C(=O)[C@H](Cc1ccc(C(N)NN)cc1)NS(=O)(=O)c1ccc2ccccc2c1)C1CCCCC1` (stereo partly specified): 152 nM; for `CNC(N)c1ccc(C[C@H](NS(=O)(=O)c2ccc3ccccc3c2)C(=O)N2CCCCCC2)cc1` (stereo partly specified): 45.5 nM.
As for `NNC(N)c1ccc(C[C@@H](NC(=O)CNS(=O)(=O)c2ccc3ccccc3c2)C(=O)N2CCCCC2)cc1` (stereo partly specified), affinity was put at a Ki of 4320 nM.
Consider `NNC(N)c1ccc(C[C@H](NS(=O)(=O)c2ccc3ccccc3c2)C(=O)N2CCCCCC2)cc1` (stereo partly specified), for which the affinity, expressed as Ki, was 1.5 nM.
`CCCCN(C)C(=O)[C@H](Cc1ccc(C(N)NN)cc1)NS(=O)(=O)c1ccc2ccccc2c1` (stereo partly specified) had an inhibition constant (Ki) of 41 nM.
`NC(N)c1ccc(C[C@@H](NC(=O)CNS(=O)(=O)c2ccc3ccccc3c2)C(=O)N2CCCCC2)cc1` came in with an inhibition constant Ki of 6.5 nM.

The target of another test is Prothrombin (Homo sapiens, UniProt P00734). Kind of test: Binding affinity was determined against human thrombin.
Take `CN(C(=O)[C@H](Cc1ccc(CCN)cc1)NS(=O)(=O)c1ccc2ccccc2c1)C1CCCC1`: affinity was put at a Ki of 3.3 nM.
The same measure, in the same setting: the same measure for `CN(C(=O)[C@H](Cc1ccc(C(N)NN)cc1)NS(=O)(=O)c1ccc2cc3ccccc3cc2c1)C1CCCC1` (stereo partly specified): 0.1 nM.
Same read-out and setting: then `CN(C(=O)[C@H](Cc1ccc(C(N)NN)cc1)NS(=O)(=O)c1ccc2ccccc2c1)C1CCCC1` (stereo partly specified), with 0.38 nM; and `CN(C(=O)[C@H](Cc1ccc(C(N)NN)cc1)NS(=O)(=O)Cc1ccccc1)C1CCCC1` (stereo partly specified), with 18.4 nM.
Consider `CCOC(=O)N1CCN(C(=O)[C@H](Cc2ccc(C(N)NN)cc2)NS(=O)(=O)c2ccc3ccccc3c2)CC1` (stereo partly specified), for which the inhibition constant (Ki) was determined as 3300 nM.
The same measure, in the same setting: then `CS(=O)(=O)N1CCN(C(=O)[C@H](Cc2ccc(C(N)NN)cc2)NS(=O)(=O)c2ccc3ccccc3c2)CC1` (stereo partly specified), with 11 nM; and `CN(C(=O)[C@H](Cc1ccc(C(N)NN)cc1)NS(=O)(=O)c1ccc2c(c1)CCCC2)C1CCCC1` (stereo partly specified), with 0.12 nM.
Take `CN(C(=O)[C@H](Cc1ccc(C(N)NN)cc1)NS(=O)(=O)c1cccc2c1CCCC2)C1CCCC1` (stereo partly specified): the affinity, expressed as Ki, was 3.8 nM.
Still for that read-out and setting: then `CN(C(=O)[C@H](Cc1ccc(C(N)NN)cc1)NS(=O)(=O)c1cccc2ccccc12)C1CCCC1` (stereo partly specified), with 8 nM; and `CN(C(=O)[C@H](Cc1ccc(C(N)NN)cc1)NS(=O)(=O)c1ccc2c(c1)CCCCC2)C1CCCC1` (stereo partly specified), with 0.045 nM.
`CN(C)c1cccc2c(S(=O)(=O)N[C@@H](Cc3ccc(C(N)NN)cc3)C(=O)N(C)C3CCCC3)cccc12` (stereo partly specified) registered a Ki of 0.3 nM.
